The target of assay [1] is Bn-VAKGL pentapeptide of filamin A (FLNA) (Homo sapiens, UniProt P21333). Description: FITC-NLX-based FLNA screening assay (FLNA peptide binding assay). The note with it: for Percent inhibition of FITC-NLX binding, 0.01 μM: 0.01 μM compound; for Percent inhibition of FITC-NLX binding, 0.01 μM / Percent inhibition of FITC-NLX binding, 0.1 μM / Percent inhibition of FITC-NLX binding, 1 μM: 10 nM FITC-NLX; for Percent inhibition of FITC-NLX binding, 0.1 μM: 0.1 μM compound; for Percent inhibition of FITC-NLX binding, 1 μM: 1 μM compound. The protocol:
The final assay volume is 100 μl.
Compounds are tested in triplicate or quadruplicate.

Assay [2] concerns the target T1, mu opiate receptor (MOR) (Rattus norvegicus, UniProt P33535).
T1 construct: from tissue; host or cells: striatal tissue (membrane preparation)
Description: [35S]GTPγS binding assay using striatal membranes (MOR agonist activity). In kind it is biochemical. Set-up: MOR agonist activity, [35S]GTPγS binding to Gαo, 0.1 μM / MOR agonist activity, [35S]GTPγS binding to Gαo, 1 μM / MOR agonist activity, [35S]GTPγS binding to Gαo, 1 μM + BFNA: reference not given here. The note with it: for MOR agonist activity, [35S]GTPγS binding to Gαo, 0.1 μM: 0.1 μM compound; for MOR agonist activity, [35S]GTPγS binding to Gαo, 0.1 μM / MOR agonist activity, [35S]GTPγS binding to Gαo, 1 μM: striatal membranes; for MOR agonist activity, [35S]GTPγS binding to Gαo, 1 μM + BFNA: 1 μM compound + 1 μM β-funaltrexamine; for MOR agonist activity, [35S]GTPγS binding to Gαo, 1 μM: 1 μM compound. As for the experimental part: To assess the mu opiate receptor (MOR) agonist activity of positive compounds from the FLNA screening, compounds were tested in a [^35S]GTPγS binding assay using striatal membranes. Our previous study has shown that in striatal membranes, activation of MOR leads to an increase in [^35S]GTPγS binding to Gαo (Wang et al., 2005 Neuroscience 135:247-261).
Striatal tissue was homogenized in 10 volumes of ice cold 25 mM HEPES buffer, pH 7.4, which contained 1 mM EGTA, 100 mM sucrose, 50 μg/ml leupeptin, 0.04 mM PMSF, 2 μg/ml soybean trypsin inhibitor and 0.2% 2-mercaptoethanol. The homogenates were centrifuged at 800×g for 5 minutes and the supernatants were centrifuged at 49,000×g for 20 minutes. The resulting pellets were suspended in 10 volume of reaction buffer, which contained 25 mM HEPES, pH 7.5, 100 mM NaCl, 50 μg/ml leupeptin, 2 μg/ml soybean trypsin inhibitor, 0.04 mM PMSF and 0.02% […].
The resultant striatal membrane preparation (200 μg) was admixed and maintained (incubated) at 30° C. for 5 minutes in reaction buffer as above that additionally contained 1 mM MgCl2 and 0.5 nM [^35S]GTPγS (0.1 μCi/assay, PerkinElmer Life and Analytical Sciences) in a total volume of 250 μl and continued for 5 minutes in the absence or presence of 0.1-10 μM of an assayed compound of interest. The reaction was terminated by dilution with 750 μl of ice-cold reaction buffer that contained 20 mM MgCl2 and 1 mM EGTA and immediate centrifugation at 16,000×g for 5 minutes.
The resulting pellet was solubilized by sonicating for 10 seconds in 0.5 ml of immunoprecipitation buffer containing 0.5% digitonin, 0.2% sodium cholate and 0.5% NP-40. Normal rabbit serum (1 μl) was added to 1 ml of lysate and incubated at 25° C. for 30 minutes. Nonspecific immune complexes were removed by incubation with 25 μl of protein A/G-conjugated agarose beads at 25° C. for 30 minutes followed by centrifugation at 5,000×g at 4° C. for 5 minutes. The supernatant was divided and separately incubated at 25° C. for 30 minutes with antibodies raised against Gαo proteins (1:1,000 dilutions).
The immunocomplexes so formed were collected by incubation at 25° C. for 30 minutes with 40 μl of agarose-conjugated protein A/G beads and centrifugation at 5,000×g at 4° C. for 5 minutes. The pellet was washed and suspended in buffer containing 50 mM Tris-HCl, pH 8.0, and 1% NP-40. The radioactivity in the suspension was determined by liquid scintillation spectrometry. […] DAMGO (H-Tyr-D-Ala-Gly-N-MePhe-Gly-OH; 1 or 10 μM) was used as a positive control.
A general note: Binding of GTPγS marks nucleotide exchange on a G protein.

T1 sequence (P33535 whole entry): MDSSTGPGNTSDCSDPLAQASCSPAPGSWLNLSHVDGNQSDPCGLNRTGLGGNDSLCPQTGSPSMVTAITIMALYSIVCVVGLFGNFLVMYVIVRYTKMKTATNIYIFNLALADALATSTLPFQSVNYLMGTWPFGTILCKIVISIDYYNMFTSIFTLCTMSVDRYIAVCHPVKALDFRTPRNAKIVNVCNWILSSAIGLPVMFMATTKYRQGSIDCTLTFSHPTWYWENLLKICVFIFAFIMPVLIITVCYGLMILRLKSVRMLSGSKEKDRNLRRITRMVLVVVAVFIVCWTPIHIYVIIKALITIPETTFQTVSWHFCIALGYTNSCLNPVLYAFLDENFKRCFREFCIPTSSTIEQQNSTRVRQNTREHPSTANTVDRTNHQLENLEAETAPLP

As for `COc1ccc(OC)c(CCC(=O)CC2c3c(cc4c(c3OC)OCO4)CC[N+]2(C)C)c1` (stereo not drawn) [B0044], in assay [1], the “Percent inhibition of FITC-NLX binding, 0.01 μM” value (“Percent inhibition … 0.01 μM” for short) is on record as 35.2%; the “Percent inhibition of FITC-NLX binding, 0.1 μM” value (shortened to “Percent inhibition … 0.1 μM”) is on record as 39.5%; the “Percent inhibition of FITC-NLX binding, 1 μM” value was 44.4%. In addition, in assay [2], the “MOR agonist activity, [35S]GTPγS binding to Gαo, 0.1 μM” value (shortened to “MOR agonist activity … 0.1 μM”) is 87.3%; the “MOR agonist activity, [35S]GTPγS binding to Gαo, 1 μM + BFNA” value (shortened to “MOR agonist activity … 1 μM + BFNA”) is given as 134.6%; the “MOR agonist activity, [35S]GTPγS binding to Gαo, 1 μM” value came to 170.0%.

As a reminder, the inhibition is the share of the control response that was lost under treatment. Regarding `COc1c2c(cc3c1C(CC(=O)c1ccc(F)c(F)c1)[N+](C)(C)CC3)OCO2` (stereo not drawn) [B0003], in assay [1] (read-out: Percent inhibition of FITC-NLX binding, 0.01 μM), the inhibition at 0.01 µM worked out at 45.4%. Besides, the inhibition at 0.1 µM in assay [1] (read-out: Percent inhibition of FITC-NLX binding, 0.1 μM) came to 52.9%. Moreover, in assay [1] (read-out: Percent inhibition of FITC-NLX binding, 1 μM), the inhibition at 1 µM was found to be 63.5%. Also, in assay [2], the “MOR agonist activity … 0.1 μM” value is 103.0%; the “MOR agonist activity … 1 μM + BFNA” value is on record as 18.6%; the “MOR agonist activity, [35S]GTPγS binding to Gαo, 1 μM” value was determined as 131.1%.

Turning to `COc1c2c(cc3c1C(CC(=O)c1ccncc1)[N+](C)(C)CC3)OCO2` (stereo not drawn) [B0005], in assay [1], the “Percent inhibition … 0.01 μM” value turned out to be 31.8%; the “Percent inhibition … 0.1 μM” value came to 34.8%; the “Percent inhibition of FITC-NLX binding, 1 μM” value is listed as 41.7%. In assay [2], the “MOR agonist activity … 0.1 μM” value worked out at 89.2%; the “MOR agonist activity … 1 μM + BFNA” value is given as 45.1%; the “MOR agonist activity, [35S]GTPγS binding to Gαo, 1 μM” value came to 110.4%.

Regarding `COc1ccc(C(=O)CC2c3c(cc4c(c3OC)OCO4)CC[N+]2(C)C)cc1OC.[I-]` (stereo not drawn) [B0026], in assay [1], the “Percent inhibition … 0.01 μM” value turned out to be 41.1%; the “Percent inhibition … 0.1 μM” value was 43.3%; the “Percent inhibition of FITC-NLX binding, 1 μM” value is 48.2%. In assay [2], the “MOR agonist activity … 0.1 μM” value is recorded as 152.0%; the “MOR agonist activity … 1 μM + BFNA” value came out at 28.8%; the “MOR agonist activity, [35S]GTPγS binding to Gαo, 1 μM” value amounted to 233.3%.

Regarding `COc1c2c(cc3c1C(CC(=O)/C=C/c1ccc(Cl)cc1)[N+](C)(C)CC3)OCO2` (stereo not drawn) [B0019], in assay [1], the “Percent inhibition … 0.01 μM” value came out at 34.3%; the “Percent inhibition … 0.1 μM” value was 41.0%; the “Percent inhibition of FITC-NLX binding, 1 μM” value is 49.0%. Moreover, in assay [2], the “MOR agonist activity … 0.1 μM” value was 101.0%; the “MOR agonist activity … 1 μM + BFNA” value is 81.4%; the “MOR agonist activity, [35S]GTPγS binding to Gαo, 1 μM” value is reported as 256.5%.

As for `COc1c2c(cc3c1C(CC(=O)CCc1ccccc1)N(C)CC3)OCO2` (stereo not drawn) [B0050], in assay [1], the “Percent inhibition … 0.01 μM” value came to 29.2%; the “Percent inhibition … 0.1 μM” value is 34.5%; the “Percent inhibition of FITC-NLX binding, 1 μM” value came to 39.8%. Also, in assay [2], the “MOR agonist activity … 0.1 μM” value came out at 98.2%; the “MOR agonist activity … 1 μM + BFNA” value was determined as 48.8%; the “MOR agonist activity, [35S]GTPγS binding to Gαo, 1 μM” value was found to be 211.0%.

With `COc1c2c(cc3c1C(CC(O)CCc1ccccc1)[N+](C)(C)CC3)OCO2` (stereo not drawn) [B0052], in assay [1], the “Percent inhibition … 0.01 μM” value is recorded as 30.2%; the “Percent inhibition … 0.1 μM” value stood at 39.1%; the “Percent inhibition of FITC-NLX binding, 1 μM” value worked out at 44.3%. Further, in assay [2], the “MOR agonist activity … 0.1 μM” value is 98.2%; the “MOR agonist activity … 1 μM + BFNA” value is given as 40.9%; the “MOR agonist activity, [35S]GTPγS binding to Gαo, 1 μM” value is reported as 151.7%.

These data come from patent US20100280061A1, “NOVEL ANALGESIC THAT BINDS FILAMIN A” (priority 2009, published 2010).
